19 molecules from patent US10799507B2, “5-(7H-pyrrolo[2,3-d]pyrimidin-4-yl)-5-azaspiro[2.5]octane-8-carboxylic acid derivatives as novel JAK kinase inhibitors” (LEO Pharma A/S, priority 2017, dated 2020) can be followed below.

The target in one data set is JAK1 (Homo sapiens (Human), UniProt P23458). The data set is described as follows: JAK kinase assay (HTRF), JAK1. Format: biochemical. Conditions: catalytic domain, ATP at Km (7 μM). A digest of the protocol: (§1)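 Catalytic-domain human JAK1 (GST-tagged, aa 850-1154) or His-tagged JAK2, baculovirus-expressed, phosphorylated 1 µM biotinylated TK peptide at Km ATP (JAK1 7 µM, 10 mM MgCl2, 50 nM SEB; JAK2 4 µM, 5 mM MgCl2) in pH 7.0 Hepes, 20-30 min RT. EDTA stop; overnight streptavidin-XL665/cryptate HTRF read.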
In general terms: TR-FRET usually uses a lanthanide donor and a delayed reading to cut background.

A further data set deals with JAK2 (Homo sapiens (Human), UniProt O60674). The data set is described as follows: JAK kinase assay (HTRF), JAK2. Format: biochemical. As to conditions: catalytic domain, ATP at Km (4 μM). A digest of the protocol: as §1
A further data set has as its target JAK3 (Homo sapiens (Human), UniProt P52333). The data set is described as follows: JAK kinase assay (HTRF), JAK3. Format: biochemical. Conditions: catalytic domain, ATP at Km (2 μM). The procedure, abridged: (§2)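 HTRF read-out of biotinylated TK peptide phosphorylation (1 μM) after a 20-30 min RT reaction in pH 7.0 Hepes buffer with 5 mM MgCl2 and 0.75% DMSO. JAK3 (His-tagged catalytic domain) used 2 μM ATP; TYK2 (GST-tagged, aa 871-1187) used 13 μM ATP plus 50 nM SEB, each at ATP Km.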

The target in another data set is TYK2 (Homo sapiens (Human), UniProt P29597). The data set is described as follows: JAK kinase assay (HTRF), TYK2. As to conditions: catalytic domain, ATP at Km (13 μM). In kind it is biochemical. The procedure, abridged:
as §2

The nature of data set [1]: in vitro metabolic stability in human liver microsomes. As to conditions: 0.5 μM compound, 0.5 mg/mL microsomes, NADPH, 40 min, 37° C.; for CLint scaled at 0.5 μM: human, liver microsomes, read-out: Human liver microsome Clapp (apparent intrinsic clearance). Format: in vitro ADME. As to the method:
To assess the in vitro metabolic stability, the compounds (0.5 μM) were incubated in duplicates with human liver microsomes (0.5 mg/mL) in phosphate buffer and NADPH, in 96-well plates for 40 min (37° C.), using a liquid handling robot (Hamilton Microlab Star). Sample aliquots were taken at 0, 5, 10, 20 and 40 min, and dispensed into cold acetonitrile, in order to stop the reactions. The plates were centrifuged for 30 minutes before the samples were analyzed using liquid chromatography coupled to a time-of-flight mass spectrometer (AB Sciex API5600). The compound depletion over time was used to estimate the elimination rate constant, from which the apparent intrinsic clearance, Clapp, was calculated and the values are listed in Table 2.
On the technique in general: Liver microsomes are vesicles of endoplasmic reticulum, rich in cytochrome P450 enzymes.

Sequence of JAK2 (O60674 849-1124): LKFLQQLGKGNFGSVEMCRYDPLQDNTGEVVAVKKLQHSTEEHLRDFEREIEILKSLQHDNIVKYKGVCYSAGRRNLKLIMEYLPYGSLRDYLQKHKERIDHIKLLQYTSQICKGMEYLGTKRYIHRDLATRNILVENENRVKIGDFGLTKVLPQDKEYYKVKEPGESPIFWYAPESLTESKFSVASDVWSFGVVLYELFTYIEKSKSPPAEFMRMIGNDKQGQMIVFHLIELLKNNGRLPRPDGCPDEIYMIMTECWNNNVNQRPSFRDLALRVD
Sequence of JAK3 (P52333 822-1111): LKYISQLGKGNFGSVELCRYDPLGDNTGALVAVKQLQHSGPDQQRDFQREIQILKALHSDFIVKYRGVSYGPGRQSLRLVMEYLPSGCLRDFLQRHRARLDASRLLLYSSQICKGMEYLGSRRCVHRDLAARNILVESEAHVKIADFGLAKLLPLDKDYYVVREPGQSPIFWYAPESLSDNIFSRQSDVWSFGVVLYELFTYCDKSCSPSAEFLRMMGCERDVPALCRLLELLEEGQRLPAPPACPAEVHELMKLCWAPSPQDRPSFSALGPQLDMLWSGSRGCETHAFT
Sequence of JAK1 (P23458 850-1154): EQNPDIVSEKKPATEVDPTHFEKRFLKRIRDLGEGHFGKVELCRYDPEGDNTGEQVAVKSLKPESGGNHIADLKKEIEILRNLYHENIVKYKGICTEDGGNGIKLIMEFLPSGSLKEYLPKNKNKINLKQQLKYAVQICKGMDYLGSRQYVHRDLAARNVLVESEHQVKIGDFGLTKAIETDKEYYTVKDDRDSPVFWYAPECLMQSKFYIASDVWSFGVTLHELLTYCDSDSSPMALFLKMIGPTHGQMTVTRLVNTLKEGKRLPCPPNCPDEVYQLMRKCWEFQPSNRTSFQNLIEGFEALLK
Sequence of TYK2 (P29597 871-1187): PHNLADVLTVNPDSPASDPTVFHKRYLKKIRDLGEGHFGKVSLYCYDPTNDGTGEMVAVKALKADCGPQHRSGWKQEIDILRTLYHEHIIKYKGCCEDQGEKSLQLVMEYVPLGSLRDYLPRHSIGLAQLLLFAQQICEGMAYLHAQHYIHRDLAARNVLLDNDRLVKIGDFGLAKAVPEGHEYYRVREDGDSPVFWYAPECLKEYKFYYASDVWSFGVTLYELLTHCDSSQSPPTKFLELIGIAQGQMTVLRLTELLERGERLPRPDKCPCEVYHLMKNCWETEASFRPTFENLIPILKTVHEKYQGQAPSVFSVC

In general, EC50 refers to the midpoint of the concentration-response curve. A lower EC50 goes with greater potency. For `O=C(N[C@@H](CO)[C@H](O)c1ccc(F)cn1)[C@H]1CCN(c2ncnc3[nH]ccc23)CC12CC2` (single isomer, unassigned) [Example 30], the EC50 was 1.4 nM at JAK1, 2.4 nM on JAK2, 27.1 nM at JAK3 and 30.5 nM at TYK2. Further, in data set [1], the CLint scaled at 0.5 μM came out at 50 mL/min/kg.

In the case of `Cc1cc([C@@H](O)CNC(=O)[C@H]2CCN(c3ncnc4[nH]ccc34)CC23CC3)ncc1F` (single isomer, unassigned) [Example 110], the EC50 at JAK1 was determined as 11.1 nM; on JAK2 it was 26.3 nM; on JAK3, 75.3 nM; at TYK2 it was 188 nM. The CLint scaled at 0.5 μM in data set [1] came out at 195 mL/min/kg.

Regarding `O=C(NC[C@@H](O)C1CCCC1)[C@H]1CCN(c2ncnc3[nH]ccc23)CC12CC2` [Example 1, (8S)-N-[(2S)-2-cyclopentyl-2-hydroxy-ethyl]-5-(7H-pyrrolo[2,3-d]pyrimidin-4-yl)-5-azaspiro[2.5]octane-8-carboxamide], the EC50 came to 0.5 nM on JAK1, 1 nM at JAK2, 3.3 nM on JAK3 and 3.6 nM at TYK2. Besides, the “Human liver microsome Clapp (apparent intrinsic clearance)” value in data set [1] came out at 190 mL/min/kg.

For the molecule `O=C(NCC(O)C1CCCCC1)[C@H]1CCN(c2ncnc3[nH]ccc23)CC12CC2` (stereo partly drawn) [Example 2, (8S)-N-(2-cyclohexyl-2-hydroxy-ethyl)-5-(7H-pyrrolo[2,3-d]pyrimidin-4-yl)-5-azaspiro[2.5]octane-8-carboxamide], the EC50 was found to be 0.5 nM at JAK1, 1.3 nM at JAK2, 3.7 nM at JAK3 and 4.6 nM on TYK2. In data set [1], the CLint scaled at 0.5 μM was above 200 mL/min/kg.

With `C[C@H](NC(=O)[C@H]1CCN(c2ncnc3[nH]ccc23)CC12CC2)[C@@H](O)C1CCCCC1` [Example 3, (8S)-N-[(1S,2S)-2-cyclohexyl-2-hydroxy-1-methyl-ethyl]-5-(7H-pyrrolo[2,3-d]pyrimidin-4-yl)-5-azaspiro[2.5]octane-8-carboxamide], the EC50 on JAK1 is 0.5 nM; on JAK2, 1.1 nM; on JAK3, 3.4 nM; on TYK2, 6.2 nM. In data set [1], the CLint scaled at 0.5 μM is above 200 mL/min/kg.

Consider `O=C(NC[C@@H](O)C1CCCCC1)[C@H]1CCN(c2ncnc3[nH]ccc23)CC12CC2` [Example 4, (8S)-N-[(2S)-2-cyclohexyl-2-hydroxy-ethyl]-5-(7H-pyrrolo[2,3-d]pyrimidin-4-yl)-5-azaspiro[2.5]octane-8-carboxamide], for which the EC50 at JAK1 stood at 0.5 nM; at JAK2, 1.2 nM; on JAK3 it was 3.4 nM; on TYK2 it was 4 nM. In data set [1], the CLint scaled at 0.5 μM is above 200 mL/min/kg.

Take `C[C@H](NC(=O)[C@H]1CCN(c2ncnc3[nH]ccc23)CC12CC2)[C@@H](O)C1CCCC1` [Example 5, (8S)-N-[(1S,2S)-2-cyclopentyl-2-hydroxy-1-methyl-ethyl]-5-(7H-pyrrolo[2,3-d]pyrimidin-4-yl)-5-azaspiro[2.5]octane-8-carboxamide]: the EC50 at JAK1 was found to be 0.6 nM; at JAK2, 1.1 nM; on JAK3, 2.3 nM; at TYK2, 6.3 nM. Also, the CLint scaled at 0.5 μM in data set [1] is above 200 mL/min/kg.

Regarding `C[C@H](NC(=O)[C@H]1CCN(c2ncnc3[nH]ccc23)CC12CC2)[C@@H](O)c1ccc(F)cc1` [Example 6, (8S)-N-[(1S,2S)-2-(4-fluorophenyl)-2-hydroxy-1-methyl-ethyl]-5-(7H-pyrrolo[2,3-d]pyrimidin-4-yl)-5-azaspiro[2.5]octane-8-carboxamide], the EC50 on JAK1 was 0.6 nM; on JAK2, 1.4 nM; at JAK3 it was 7.4 nM; at TYK2, 7 nM. For the same molecule, the CLint scaled at 0.5 μM in data set [1] was above 200 mL/min/kg.

`N#Cc1ccc(CNC(=O)C2CCN(c3ncnc4[nH]ccc34)CC23CC3)nc1` (stereo not drawn) [Example 76, N-[(5-cyano-2-pyridyl)methyl]-5-(7H-pyrrolo[2,3-d]pyrimidin-4-yl)-5-azaspiro[2.5]octane-8-carboxamide]: the EC50 at JAK1 is 6.2 nM; at JAK2 it was 43.3 nM; at JAK3 it was 53.6 nM. Further, the CLint scaled at 0.5 μM in data set [1] was 139 mL/min/kg.

Turning to `O=C(N[C@H](CO)c1ccccn1)[C@H]1CCN(c2ncnc3[nH]ccc23)CC12CC2` [Example 135, (8S)-N-[(1S)-2-hydroxy-1-(2-pyridyl)ethyl]-5-(7H-pyrrolo[2,3-d]pyrimidin-4-yl)-5-azaspiro[2.5]octane-8-carboxamide], the EC50 on JAK1 is 33.2 nM; on JAK2 it was 83.8 nM; at JAK3, 148 nM; at TYK2, 466 nM.

Take `C[C@@H](NC(=O)C1CCN(c2ncnc3[nH]ccc23)CC12CC2)c1ccccc1` (stereo partly drawn) [Example 136, N-[(1R)-1-phenylethyl]-5-(7H-pyrrolo[2,3-d]pyrimidin-4-yl)-5-azaspiro[2.5]octane-8-carboxamide]: the EC50 at JAK1 worked out at 33.8 nM; at JAK2 it was 55.1 nM; on JAK3 it was 111 nM; on TYK2, 1460 nM.

Turning to `O=C(N[C@@H](CO)Cc1ccccc1)C1CCN(c2ncnc3[nH]ccc23)CC12CC2` (stereo partly drawn) [Example 137, N-[(1R)-1-benzyl-2-hydroxy-ethyl]-5-(7H-pyrrolo[2,3-d]pyrimidin-4-yl)-5-azaspiro[2.5]octane-8-carboxamide], the EC50 came to 38 nM at JAK1, 30.5 nM on JAK2, 91.6 nM at JAK3 and 1380 nM on TYK2.

As for `O=C(OCc1ccccc1)[C@H](CO)NC(=O)[C@H]1CCN(c2ncnc3[nH]ccc23)CC12CC2` [Example 138, Benzyl (2S)-3-hydroxy-2-[[(8S)-5-(7H-pyrrolo[2,3-d]pyrimidin-4-yl)-5-azaspiro[2.5]octane-8-carbonyl]amino]propanoate], the EC50 on JAK1 is 38.2 nM; on JAK2 it was 112 nM; at JAK3, 90.9 nM; on TYK2, 1100 nM.

In the case of `O=C(N[C@H](CO)Cc1ccccc1)C1CCN(c2ncnc3[nH]ccc23)CC12CC2` (stereo partly drawn) [Example 141, N-[(1S)-1-benzyl-2-hydroxy-ethyl]-5-(7H-pyrrolo[2,3-d]pyrimidin-4-yl)-5-azaspiro[2.5]octane-8-carboxamide], the EC50 at JAK1 is 41.2 nM; on JAK2, 81.6 nM; on JAK3, 52 nM; on TYK2, 4160 nM.

For the molecule `N#Cc1ccc(CNC(=O)[C@@H]2CCN(c3ncnc4[nH]ccc34)CC23CC3)cc1` [Example 145, (8R)-N-[(4-cyanophenyl)methyl]-5-(7H-pyrrolo[2,3-d]pyrimidin-4-yl)-5-azaspiro[2.5]octane-8-carboxamide], the EC50 on JAK1 was found to be 64.4 nM; at JAK2, 251 nM; on JAK3 it was 176 nM; at TYK2, 5740 nM.

For the molecule `C[C@@H](NC(=O)[C@H]1CCN(c2ncnc3[nH]ccc23)CC12CC2)[C@@H](O)c1ccc(C#N)cc1` [Example 146, (8S)-N-[(1R,2S)-2-(4-cyanophenyl)-2-hydroxy-1-methyl-ethyl]-5-(7H-pyrrolo[2,3-d]pyrimidin-4-yl)-5-azaspiro[2.5]octane-8-carboxamide], the 50% effective concentration (EC50) on JAK1 was 67.7 nM; on JAK2, 188 nM; on JAK3, 266 nM; on TYK2, 1840 nM.

In the case of `O=C(N[C@H](CO)C1CCC1)[C@H]1CCN(c2ncnc3[nH]ccc23)CC12CC2` [Example 147, (8S)-N-[(1S)-1-cyclobutyl-2-hydroxy-ethyl]-5-(7H-pyrrolo[2,3-d]pyrimidin-4-yl)-5-azaspiro[2.5]octane-8-carboxamide], the EC50 was 68.1 nM on JAK1, 121 nM on JAK2, 162 nM on JAK3 and 914 nM on TYK2.

Consider `O=C(N[C@@H](CO)C1CCC1)[C@H]1CCN(c2ncnc3[nH]ccc23)CC12CC2` [Example 148, (8S)-N-[(1R)-1-cyclobutyl-2-hydroxy-ethyl]-5-(7H-pyrrolo[2,3-d]pyrimidin-4-yl)-5-azaspiro[2.5]octane-8-carboxamide], for which the half-maximal effective concentration (EC50) on JAK1 came to 70.6 nM; at JAK2 it was 139 nM; on JAK3, 163 nM; at TYK2 it was 1080 nM.

Turning to `O=C(OCC1(CO)CCCCC1)[C@H]1CCN(c2ncnc3[nH]ccc23)CC12CC2` [Example 161, [1-(hydroxymethyl)cyclohexyl]methyl (8S)-5-(7H-pyrrolo[2,3-d]pyrimidin-4-yl)-5-azaspiro[2.5]octane-8-carboxylate], the CLint scaled at 0.5 μM in data set [1] is above 200 mL/min/kg.
